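Following 48 hours of exposure in 96-well plates, responses at five concentrations were used to interpolate endpoints linearly. TGI: total growth inhibition.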
How the values were obtained:
Experiment in all cases: NCI-60 cell line screen, 48 h
OVCAR-5 ovarian = tested on: OVCAR-5 ovarian
T-47D breast = tested on: T-47D breast
DU-145 prostate = tested on: DU-145 prostate
HT29 colon = tested on: HT29 colon
M14 melanoma = tested on: M14 melanoma
SF-295 CNS = tested on: SF-295 CNS
SK-MEL-2 melanoma = tested on: SK-MEL-2 melanoma
NCI/ADR-RES ovarian = tested on: NCI/ADR-RES ovarian
OVCAR-8 ovarian = tested on: OVCAR-8 ovarian
NCI-H23 lung = tested on: NCI-H23 lung
SF-268 CNS = tested on: SF-268 CNS
U251 CNS = tested on: U251 CNS
COLO 205 colon = tested on: COLO 205 colon
SW-620 colon = tested on: SW-620 colon
HCT-15 colon = tested on: HCT-15 colon
MDA-MB-231 breast = tested on: MDA-MB-231 breast
UACC-257 melanoma = tested on: UACC-257 melanoma
NCI-H226 lung = tested on: NCI-H226 lung
A549 NSCLC = tested on: A549 NSCLC
RPMI-8226 leukemia = tested on: RPMI-8226 leukemia
UO-31 renal = tested on: UO-31 renal
MDA-N = tested on: MDA-N
IGROV1 ovarian = tested on: IGROV1 ovarian
SK-OV-3 ovarian = tested on: SK-OV-3 ovarian
MCF7 breast = tested on: MCF7 breast
HOP-92 NSCLC = tested on: HOP-92 NSCLC
HS 578T breast = tested on: HS 578T breast
CAKI-1 renal = tested on: CAKI-1 renal
NCI-H522 lung = tested on: NCI-H522 lung
MOLT-4 leukemia = tested on: MOLT-4 leukemia
SF-539 CNS = tested on: SF-539 CNS
SN12C renal = tested on: SN12C renal
BT-549 breast = tested on: BT-549 breast
HCC-2998 colon = tested on: HCC-2998 colon
SR leukemia = tested on: SR leukemia
HOP-62 NSCLC = tested on: HOP-62 NSCLC
A498 renal = tested on: A498 renal
SK-MEL-5 melanoma = tested on: SK-MEL-5 melanoma
SNB-19 CNS = tested on: SNB-19 CNS
RXF 393 renal = tested on: RXF 393 renal
EKVX NSCLC = tested on: EKVX NSCLC
KM12 colon = tested on: KM12 colon
SK-MEL-28 melanoma = tested on: SK-MEL-28 melanoma
HCT-116 colon = tested on: HCT-116 colon
TK-10 renal = tested on: TK-10 renal
UACC-62 melanoma = tested on: UACC-62 melanoma
CCRF-CEM leukemia = tested on: CCRF-CEM leukemia
HL-60(TB) leukemia = tested on: HL-60(TB) leukemia
PC-3 prostate = tested on: PC-3 prostate
SNB-75 CNS = tested on: SNB-75 CNS
OVCAR-3 ovarian = tested on: OVCAR-3 ovarian
LOX IMVI melanoma = tested on: LOX IMVI melanoma
786-0 renal = tested on: 786-0 renal
MDA-MB-435 = tested on: MDA-MB-435
OVCAR-4 ovarian = tested on: OVCAR-4 ovarian
NCI-H460 lung = tested on: NCI-H460 lung
K-562 leukemia = tested on: K-562 leukemia
ACHN renal = tested on: ACHN renal
MALME-3M melanoma = tested on: MALME-3M melanoma

SMILES: O=C1c2cccc([N+](=O)[O-])c2C(=O)N1Cc1ccccc1
- TGI (OVCAR-5 ovarian): > 100 µM
- TGI (T-47D breast): > 100 µM
- TGI (DU-145 prostate): > 100 µM
- TGI (HT29 colon): > 100 µM
- TGI (M14 melanoma): > 100 µM
- TGI (SF-295 CNS): > 100 µM
- TGI (SK-MEL-2 melanoma): > 100 µM
- TGI (NCI/ADR-RES ovarian): > 100 µM
- TGI (OVCAR-8 ovarian): > 100 µM
- TGI (NCI-H23 lung): > 100 µM
- TGI (SF-268 CNS): > 100 µM
- TGI (U251 CNS): > 100 µM
- TGI (COLO 205 colon): > 100 µM
- TGI (SW-620 colon): > 100 µM
- TGI (HCT-15 colon): > 100 µM
- TGI (MDA-MB-231 breast): > 100 µM
- TGI (UACC-257 melanoma): > 100 µM
- TGI (NCI-H226 lung): > 100 µM
- TGI (A549 NSCLC): > 100 µM
- TGI (RPMI-8226 leukemia): > 100 µM
- TGI (UO-31 renal): > 100 µM
- TGI (MDA-N): > 100 µM
- TGI (IGROV1 ovarian): > 100 µM
- TGI (SK-OV-3 ovarian): > 100 µM
- TGI (MCF7 breast): > 100 µM
- TGI (HOP-92 NSCLC): > 100 µM
- TGI (HS 578T breast): > 100 µM
- TGI (CAKI-1 renal): > 100 µM
- TGI (NCI-H522 lung): > 100 µM
- TGI (MOLT-4 leukemia): > 100 µM
- TGI (SF-539 CNS): > 100 µM
- TGI (SN12C renal): > 100 µM
- TGI (BT-549 breast): > 100 µM
- TGI (HCC-2998 colon): > 100 µM
- TGI (SR leukemia): > 100 µM
- TGI (HOP-62 NSCLC): > 100 µM
- TGI (A498 renal): > 100 µM
- TGI (SK-MEL-5 melanoma): > 100 µM
- TGI (SNB-19 CNS): > 100 µM
- TGI (RXF 393 renal): > 100 µM
- TGI (EKVX NSCLC): > 100 µM
- TGI (KM12 colon): > 100 µM
- TGI (SK-MEL-28 melanoma): > 100 µM
- TGI (HCT-116 colon): > 100 µM
- TGI (TK-10 renal): > 100 µM
- TGI (UACC-62 melanoma): > 100 µM
- TGI (CCRF-CEM leukemia): > 100 µM
- TGI (HL-60(TB) leukemia): > 100 µM
- TGI (PC-3 prostate): > 100 µM
- TGI (SNB-75 CNS): > 100 µM
- TGI (OVCAR-3 ovarian): > 100 µM
- TGI (LOX IMVI melanoma): > 100 µM
- TGI (786-0 renal): > 100 µM
- TGI (MDA-MB-435): > 100 µM
- TGI (OVCAR-4 ovarian): > 100 µM
- TGI (NCI-H460 lung): > 100 µM
- TGI (K-562 leukemia): > 100 µM
- TGI (ACHN renal): > 100 µM

SMILES: COc1cccc(N2C(=O)CSC2c2cccc(Oc3ccccc3)c2)c1 (stereo not drawn)
- TGI (OVCAR-5 ovarian): > 100 µM
- TGI (T-47D breast): > 100 µM
- TGI (DU-145 prostate): > 100 µM
- TGI (HT29 colon): 37.5 µM
- TGI (M14 melanoma): 51 µM
- TGI (SF-295 CNS): > 100 µM
- TGI (SK-MEL-2 melanoma): 16.3 µM
- TGI (MALME-3M melanoma): 53.7 µM
- TGI (NCI/ADR-RES ovarian): 40.4 µM
- TGI (OVCAR-8 ovarian): 50.7 µM
- TGI (NCI-H23 lung): > 100 µM
- TGI (SF-268 CNS): 42.9 µM
- TGI (U251 CNS): 19.3 µM
- TGI (COLO 205 colon): 10.2 µM
- TGI (SW-620 colon): > 100 µM
- TGI (HCT-15 colon): 76.9 µM
- TGI (MDA-MB-231 breast): 79.1 µM
- TGI (UACC-257 melanoma): 12.3 µM
- TGI (NCI-H226 lung): 69.1 µM
- TGI (A549 NSCLC): > 100 µM
- TGI (UO-31 renal): > 100 µM
- TGI (MDA-N): 5.53 µM
- TGI (SK-OV-3 ovarian): > 100 µM
- TGI (MCF7 breast): 7.13 µM
- TGI (HOP-92 NSCLC): 62.8 µM
- TGI (HS 578T breast): 41.4 µM
- TGI (CAKI-1 renal): 14.3 µM
- TGI (NCI-H522 lung): 20.6 µM
- TGI (MOLT-4 leukemia): 28.4 µM
- TGI (SF-539 CNS): 15.9 µM
- TGI (SN12C renal): 25 µM
- TGI (BT-549 breast): 45.6 µM
- TGI (HCC-2998 colon): 7.23 µM
- TGI (SR leukemia): 17.6 µM
- TGI (HOP-62 NSCLC): > 100 µM
- TGI (A498 renal): 9.33 µM
- TGI (SK-MEL-5 melanoma): 16.9 µM
- TGI (SNB-19 CNS): > 100 µM
- TGI (RXF 393 renal): 39.1 µM
- TGI (EKVX NSCLC): 61.4 µM
- TGI (KM12 colon): > 100 µM
- TGI (SK-MEL-28 melanoma): > 100 µM
- TGI (HCT-116 colon): 12 µM
- TGI (TK-10 renal): 25.3 µM
- TGI (UACC-62 melanoma): 11.7 µM
- TGI (CCRF-CEM leukemia): > 100 µM
- TGI (HL-60(TB) leukemia): 66.5 µM
- TGI (PC-3 prostate): > 100 µM
- TGI (SNB-75 CNS): 39.5 µM
- TGI (OVCAR-3 ovarian): 92.9 µM
- TGI (LOX IMVI melanoma): 27.2 µM
- TGI (786-0 renal): 24 µM
- TGI (MDA-MB-435): > 100 µM
- TGI (OVCAR-4 ovarian): 87.5 µM
- TGI (NCI-H460 lung): 12.3 µM
- TGI (K-562 leukemia): 11.4 µM
- TGI (ACHN renal): 41 µM

SMILES: CC(C)/C(Cl)=N/OC(=O)Nc1ccc(Br)cc1
- TGI (OVCAR-5 ovarian): 28.6 µM
- TGI (T-47D breast): 9.95 µM
- TGI (DU-145 prostate): 27.4 µM
- TGI (HT29 colon): 18.5 µM
- TGI (M14 melanoma): 8.33 µM
- TGI (SF-295 CNS): 28.8 µM
- TGI (SK-MEL-2 melanoma): 31.5 µM
- TGI (MALME-3M melanoma): 3.85 µM
- TGI (NCI/ADR-RES ovarian): 27.8 µM
- TGI (OVCAR-8 ovarian): 27.8 µM
- TGI (NCI-H23 lung): 26.5 µM
- TGI (SF-268 CNS): 34 µM
- TGI (U251 CNS): 37.3 µM
- TGI (COLO 205 colon): 3.43 µM
- TGI (SW-620 colon): 4.6 µM
- TGI (HCT-15 colon): 5.34 µM
- TGI (MDA-MB-231 breast): 31.2 µM
- TGI (UACC-257 melanoma): 28.7 µM
- TGI (NCI-H226 lung): 30.5 µM
- TGI (A549 NSCLC): 39.5 µM
- TGI (RPMI-8226 leukemia): 5.24 µM
- TGI (UO-31 renal): 23.8 µM
- TGI (MDA-N): 15.7 µM
- TGI (IGROV1 ovarian): 27.1 µM
- TGI (SK-OV-3 ovarian): 30.3 µM
- TGI (MCF7 breast): 24.9 µM
- TGI (HOP-92 NSCLC): 3.35 µM
- TGI (HS 578T breast): 58.4 µM
- TGI (CAKI-1 renal): 3.2 µM
- TGI (NCI-H522 lung): 2.97 µM
- TGI (MOLT-4 leukemia): 5.45 µM
- TGI (SF-539 CNS): 29.1 µM
- TGI (SN12C renal): 4.62 µM
- TGI (BT-549 breast): 9.19 µM
- TGI (HCC-2998 colon): 29.4 µM
- TGI (SR leukemia): 4.5 µM
- TGI (HOP-62 NSCLC): 31.7 µM
- TGI (A498 renal): 33.8 µM
- TGI (SK-MEL-5 melanoma): 26.3 µM
- TGI (SNB-19 CNS): 44.1 µM
- TGI (RXF 393 renal): 23.9 µM
- TGI (EKVX NSCLC): 4.37 µM
- TGI (KM12 colon): 26.6 µM
- TGI (SK-MEL-28 melanoma): 14.1 µM
- TGI (HCT-116 colon): 10.4 µM
- TGI (TK-10 renal): 26.2 µM
- TGI (UACC-62 melanoma): 17 µM
- TGI (CCRF-CEM leukemia): 2.93 µM
- TGI (HL-60(TB) leukemia): 7.62 µM
- TGI (PC-3 prostate): 26.7 µM
- TGI (SNB-75 CNS): 34.3 µM
- TGI (OVCAR-3 ovarian): 9.5 µM
- TGI (LOX IMVI melanoma): 2.85 µM
- TGI (786-0 renal): 3.63 µM
- TGI (MDA-MB-435): 30.7 µM
- TGI (OVCAR-4 ovarian): 31.8 µM
- TGI (NCI-H460 lung): 30.7 µM
- TGI (ACHN renal): 3.77 µM

From PubChem BioAssay (NCI)
